Consider 26 molecules from patent publication US20230081426A1, “COMPOUNDS AND METHODS FOR KRAS MODULATION AND INDICATIONS THEREFOR” (Plexxikon Inc., priority 2020, published 2023).

T1 sequence (P01116 1-188 isoform P01116-2 G12D): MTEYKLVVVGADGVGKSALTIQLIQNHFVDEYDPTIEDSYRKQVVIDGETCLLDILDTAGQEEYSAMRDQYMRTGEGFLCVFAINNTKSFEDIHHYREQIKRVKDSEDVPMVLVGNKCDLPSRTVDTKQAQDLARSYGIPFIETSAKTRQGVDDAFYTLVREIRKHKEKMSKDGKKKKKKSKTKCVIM

The first assay addresses T1, G12D-mutant human KRAS (amino acid residues 1-188) (Homo sapiens, UniProt P01116, G12D).
T1 construct: G12D or G12C-mutant human KRAS (amino acid residues 1-188) with FLAG tag; made in house; host or cells: E. coli
The assay can be described thus: KRAS Binding Disruption Assay (AlphaScreen; biotinylated KRpep-2d analogue or RAF1-RBD), G12D. Conditions: KRAS G12D; geometric mean; read-out: KRAS GMean IC50 (uM) MUTATION: G12D. As for the experimental part: Compound binding disrupts the interaction of KRpep-2d or RAF1-RBD with KRAS, leading to a decrease in Alpha signal.
All assay components were prepared in 20 mM HEPES (pH 7.5), 100 mM NaCl, 5 mM MgCl2, 0.01% Tween-20, and 0.01% BSA. Biotinylated analogues of KRpep-2d were custom synthesized. The binding disruption assays were performed using 5-20 nM of mutant KRAS and 5-20 nM of either biotinylated KRpep-2d analogue or RAF1-RBD. 19 μL of KRAS protein and 4 μL of biotinylated KRpep-2d or RAF1-RBD were added to the wells of a 384-well plate containing 1 μL of various concentrations of test compound or DMSO vehicle. 16 wells containing KRAS, biotinylated KRpep-2d or RAF1-RBD, and 5% DMSO served as high controls. 16 wells containing KRAS only and 5% DMSO served as low controls. Binding reactions were incubated for 1 hour at 25° C., then Anti-Flag Acceptor and Streptavidin Donor Alpha beads were added at a final concentration of 10 μg/mL for an additional hour at room temperature. Alpha signal was read out on a Perkin Elmer Envision HTS instrument. The percentage inhibition at individual compound concentrations relative to high and low controls was calculated. The data were analyzed by using nonlinear regression to generate IC50 values.
A general note: In Alpha technology, singlet oxygen from a donor bead excites a nearby acceptor bead.
In general, IC50 refers to the concentration needed to halve the response being measured. On to `CN1CCC[C@H]1COc1nc(N2C[C@H]3CC[C@@H](C2)N3)c2cnc(-c3cc(O)cc4ccccc34)cc2n1` [P-0004, 4-(4-((1R,5S)-3,8-diazabicyclo[3.2.1]octan-3-yl)-2-(((S)-1-methylpyrrolidin-2-yl)methoxy)pyrido[4,3-d]pyrimidin-7-yl)naphthalen-2-ol], for which the IC50 lay within 0.0001 to 10 µM.

For the molecule `CN1CCC[C@H]1COc1nc(N2C[C@@H]3CC[C@H]2CN3)c2ccc(-c3cc(O)cc4ccccc34)cc2n1` [P-0011, 4-(4-((1S,4S)-2,5-diazabicyclo[2.2.2]octan-2-yl)-2-(((S)-1-methylpyrrolidin-2-yl)methoxy)quinazolin-7-yl)naphthalen-2-ol], the IC50 was in the range of 0.0001 to 10 µM.

With `CN1CCC[C@H]1COc1nc(N2C[C@H]3CC[C@@H]2CN3)c2ccc(-c3cc(O)cc4ccccc34)cc2n1` [P-0012, 4-(4-((1R,4R)-2,5-diazabicyclo[2.2.2]octan-2-yl)-2-(((S)-1-methylpyrrolidin-2-yl)methoxy)quinazolin-7-yl)naphthalen-2-ol], the IC50 was in the range of 0.0001 to 10 µM.

For `Cc1c(-c2cc(O)cc3ccccc23)ccc2c(N3C[C@H]4CC[C@@H](C3)N4)nc(OC[C@@H]3CCCN3C)nc12` [P-0014, 4-(4-((1R,5S)-3,8-diazabicyclo[3.2.1]octan-3-yl)-8-methyl-2-(((S)-1-methylpyrrolidin-2-yl)methoxy)quinazolin-7-yl)naphthalen-2-ol], the IC50 lay within 0.0001 to 10 µM.

For `Oc1cc(-c2ccc3c(N4C[C@H]5CC[C@@H](C4)N5Cc4ccccc4)nc(OCC45CCCN4CCC5)nc3c2)c2ccccc2c1` [P-0018, 4-(4-((1R,5S)-8-benzyl-3,8-diazabicyclo[3.2.1]octan-3-yl)-2-((tetrahydro-1H-pyrrolizin-7a(5H)-yl)methoxy)quinazolin-7-yl)naphthalen-2-ol], the IC50 lay in the range of 0.0001 to 10 µM.

As to `CN1CCC[C@H]1COc1nc(N2C[C@H]3CC[C@@H](C2)N3)c2cc(Cl)c(-c3cc(O)cc4ccccc34)c(OCC(F)(F)F)c2n1` [P-0033, 4-(4-((1R,5S)-3,8-diazabicyclo[3.2.1]octan-3-yl)-6-chloro-2-(((S)-1-methylpyrrolidin-2-yl)methoxy)-8-(2,2,2-trifluoroethoxy)quinazolin-7-yl)naphthalen-2-ol], the IC50 fell in the range of 0.0001 to 10 µM.

As for `CO[C@@H]1CN(C)C[C@H]1Oc1nc(N2C[C@H]3CC[C@@H](C2)N3)c2cc(Cl)c(-c3cc(O)cc4ccccc34)c(F)c2n1` [P-0035, 4-(4-((1R,5S)-3,8-diazabicyclo[3.2.1]octan-3-yl)-6-chloro-8-fluoro-2-(((3R,4R)-4-methoxy-1-methylpyrrolidin-3-yl)oxy)quinazolin-7-yl)naphthalen-2-ol], the concentration for half-maximal inhibition (IC50) was in the range of 0.0001 to 10 µM.

On to `CN1CCC[C@H]1COc1nc(N2CC3COCC(C2)N3)c2cc(Cl)c(-c3cc(O)cc4ccccc34)c(F)c2n1` [P-0040, 4-(4-(3-oxa-7,9-diazabicyclo[3.3.1]nonan-7-yl)-6-chloro-8-fluoro-2-(((S)-1-methylpyrrolidin-2-yl)methoxy)quinazolin-7-yl)naphthalen-2-ol], for which the IC50 lay within 0.0001 to 10 µM.

Take `CN1CCC[C@H]1COc1nc(N2C[C@H]3C[C@@H]2CN3)c2cc(Cl)c(-c3cc(O)cc4ccccc34)c(F)c2n1` [P-0041, 4-(4-((1R,4R)-2,5-diazabicyclo[2.2.1]heptan-2-yl)-6-chloro-8-fluoro-2-(((S)-1-methylpyrrolidin-2-yl)methoxy)quinazolin-7-yl)naphthalen-2-ol]: the IC50 fell in the range of 0.0001 to 10 µM.

Turning to `CN1CCC[C@H]1COc1nc(N2C[C@H]3CC[C@@H](C2)N3)c2cc(Cl)c(-c3cc(O)cc4ccccc34)nc2n1` [P-0045, 4-(4-((1R,5S)-3,8-diazabicyclo[3.2.1]octan-3-yl)-6-chloro-2-(((S)-1-methylpyrrolidin-2-yl)methoxy)pyrido[2,3-d]pyrimidin-7-yl)naphthalen-2-ol], the concentration for half-maximal inhibition (IC50) lay in the range of 0.0001 to 10 µM.

For the molecule `CN1CCC[C@H]1COc1nc(N2C[C@H]3C[C@@H]2CN3)c2ccc(-c3cc(O)cc4ccccc34)cc2n1` [P-0051, 4-(4-((1R,4R)-2,5-diazabicyclo[2.2.1]heptan-2-yl)-2-(((S)-1-methylpyrrolidin-2-yl)methoxy)quinazolin-7-yl)naphthalen-2-ol], the IC50 is 0.0001 to 10 µM.

`CN1CCC[C@H]1COc1nc(N2C[C@@H]3C[C@H]2CN3)c2ccc(-c3cc(O)cc4ccccc34)cc2n1` [P-0052, 4-(4-((1S,4S)-2,5-diazabicyclo[2.2.1]heptan-2-yl)-2-(((S)-1-methylpyrrolidin-2-yl)methoxy)quinazolin-7-yl)naphthalen-2-ol]: the 50% inhibitory concentration (IC50) lay within 0.0001 to 10 µM.

As for `CN(C)CCN(C)c1nc(N2C[C@H]3CC[C@@H](C2)N3)c2ccc(-c3cc(O)cc4ccccc34)cc2n1` [P-0057, 4-(4-((1R,5S)-3,8-diazabicyclo[3.2.1]octan-3-yl)-2-((2-(dimethylamino)ethyl)(methyl)amino)quinazolin-7-yl)naphthalen-2-ol], the 50% inhibitory concentration (IC50) fell in the range of 10 to 100 µM.

On to `CN1CC[C@@H](COc2nc(N3C[C@H]4CC[C@@H](C3)N4)c3ccc(-c4cc(O)cc5ccccc45)cc3n2)C1` [P-0069, 4-(4-((1R,5S)-3,8-diazabicyclo[3.2.1]octan-3-yl)-2-(((R)-1-methylpyrrolidin-3-yl)methoxy)quinazolin-7-yl)naphthalen-2-ol], for which the IC50 is 0.0001 to 10 µM.

Take `CN(C)C(=O)COc1nc(N2C[C@H]3CC[C@@H](C2)N3)c2ccc(-c3cc(O)cc4ccccc34)cc2n1` [P-0070, 2-((4-((1R,5S)-3,8-diazabicyclo[3.2.1]octan-3-yl)-7-(3-hydroxynaphthalen-1-yl)quinazolin-2-yl)oxy)-N,N-dimethylacetamide]: the IC50 is 10 to 100 µM.

Regarding `CN(C)C(=O)CCOc1nc(N2C[C@H]3CC[C@@H](C2)N3)c2ccc(-c3cc(O)cc4ccccc34)cc2n1` [P-0071, 3-((4-((1R,5S)-3,8-diazabicyclo[3.2.1]octan-3-yl)-7-(3-hydroxynaphthalen-1-yl)quinazolin-2-yl)oxy)-N,N-dimethylpropanamide], the half-maximal inhibitory concentration (IC50) was in the range of 0.0001 to 10 µM.

On to `CN(C)CC(CN)Oc1nc(N2C[C@H]3CC[C@@H](C2)N3)c2ccc(-c3cc(O)cc4ccccc34)cc2n1` (stereo partly drawn) [P-0074, 4-(2-((1-amino-3-(dimethylamino)propan-2-yl)oxy)-4-((1R,5S)-3,8-diazabicyclo[3.2.1]octan-3-yl)quinazolin-7-yl)naphthalen-2-ol], for which the half-inhibitory concentration (IC50) lay within 0.0001 to 10 µM.

On to `Oc1cc(-c2ccc3c(N4C[C@H]5CC[C@@H](C4)N5Cc4ccccn4)nc(OCC45CCCN4CCC5)nc3c2)c2ccccc2c1` [P-0076, 4-(4-((1R,5S)-8-(pyridin-2-ylmethyl)-3,8-diazabicyclo[3.2.1]octan-3-yl)-2-((tetrahydro-1H-pyrrolizin-7a(5H)-yl)methoxy)quinazolin-7-yl)naphthalen-2-ol], for which the 50% inhibitory concentration (IC50) was in the range of 0.0001 to 10 µM.

As for `Oc1cc(-c2ccc3c(N4C[C@H]5CC[C@@H](C4)N5)nc(OCC4CCOC4)nc3c2)c2ccccc2c1` (stereo partly drawn) [P-0081, 4-(4-((1R,5S)-3,8-diazabicyclo[3.2.1]octan-3-yl)-2-((tetrahydrofuran-3-yl)methoxy)quinazolin-7-yl)naphthalen-2-ol], the concentration for half-maximal inhibition (IC50) was 0.0001 to 10 µM.

`Oc1cc(-c2ccc3c(N4C[C@H]5CC[C@@H](C4)N5)nc(OCC4CCCO4)nc3c2)c2ccccc2c1` (stereo partly drawn) [P-0082, 4-(4-((1R,5S)-3,8-diazabicyclo[3.2.1]octan-3-yl)-2-((tetrahydrofuran-2-yl)methoxy)quinazolin-7-yl)naphthalen-2-ol]: the half-maximal inhibitory concentration (IC50) lay in the range of 0.0001 to 10 µM.

On to `CNCCOc1nc(N2C[C@H]3CC[C@@H](C2)N3)c2ccc(-c3cc(O)cc4ccccc34)cc2n1` [P-0083, 4-(4-((1R,5S)-3,8-diazabicyclo[3.2.1]octan-3-yl)-2-(2-(methylamino)ethoxy)quinazolin-7-yl)naphthalen-2-ol], for which the IC50 lay in the range of 10 to 100 µM.

As for `CN1CCOC[C@H]1COc1nc(N2C[C@H]3CC[C@@H](C2)N3)c2ccc(-c3cc(O)cc4ccccc34)cc2n1` [P-0084, 4-(4-((1R,5S)-3,8-diazabicyclo[3.2.1]octan-3-yl)-2-(((S)-4-methylmorpholin-3-yl)methoxy)quinazolin-7-yl)naphthalen-2-ol], the IC50 lay in the range of 0.0001 to 10 µM.

`CN1CCC1COc1nc(N2C[C@H]3CC[C@@H](C2)N3)c2ccc(-c3cc(O)cc4ccccc34)cc2n1` (stereo partly drawn) [P-0086, 4-(4-((1R,5S)-3,8-diazabicyclo[3.2.1]octan-3-yl)-2-((1-methylazetidin-2-yl)methoxy)quinazolin-7-yl)naphthalen-2-ol]: the half-maximal inhibitory concentration (IC50) lay in the range of 0.0001 to 10 µM.

The same assay, now with this note: Table 3; geometric mean; bridged vs non-bridged R1; read-out: KRAS GMean IC50 (uM) MUTATION: G12D.
Consider `CN1CCC[C@H]1COc1nc(N2CCNCC2)c2cc(Cl)c(-c3cc(O)cc4ccccc34)c(F)c2n1` [Non-bridged version of P-0001, reference compound], for which the IC50 was determined as 1.11 µM.

The assay is the same for the next values; noted with them: Table 4; geometric mean; comparison with compounds of WO 2017/172979; read-out: KRAS GMean IC50 (uM) MUTATION: G12D.
Regarding `CC1CN(c2nc(OCCCN3CCC(F)(F)C3)nc3c(F)c(-c4cc(O)cc5ccccc45)c(Cl)cc23)C(C)CN1` (centres unmarked) [Compound 36 in WO 2017/172979, reference compound], the 50% inhibitory concentration (IC50) amounted to 3.06 µM.

`CN(C)CCCOc1nc(N2CCN(C)CC2)c2cc(Cl)c(-c3cc(O)cc4ccccc34)c(F)c2n1` [Compound 149 in WO 2017/172979, reference compound]: the IC50 worked out at 16.5 µM.
